Data from patent publication US9701709B2 (REATA PHARMACEUTICALS, INC., priority 2012, dated 2017).
Read-outs that look alike come from different tables or passages of the source.

Key:
cynomolgus monkeys = conditions: for ALP / ALT / AST / Albumin / BUN / Chol / Cr / Glucose / TG / Tot Bil / Tot Prot: monkey, Day 14
[1] = test system: NQO1 enzymatic activity in RAW264.7 mouse macrophage cells; assay: NQO1 enzymatic activity (modified Prochaska assay) in RAW264.7; assay type: cell-based; conditions: RAW264.7, 24 h
Method: Consistent with induction of Nrf2 target genes and corresponding protein products, treatment of RAW264.7 mouse macrophage cells for 24 h increased NQO1 enzymatic activity in a dose-dependent manner, with increases evident at 7.8 nM (FIG. 7). NQO1 enzymatic activity was measured by a modified Prochaska assay (Prochaska and Santamaria, Anal Biochem. 169:328-336, 1988, which is incorporated herein by reference).

[2] = test system: NF-κB in NIH3T3/NF-κB-luc cell line; assay: NF-κB luciferase reporter in NIH3T3/NF-κB-luc; assay type: cell-based; conditions: Mus musculus
Description: (b) TNF-α-induced activation of an NF-κB luciferase reporter in the mouse NIH3T3 cell line.
NF-κB is a transcription factor that plays a central role in the regulation of many immune and inflammatory responses. […] The NIH3T3/NF-κB-luc cell line maintains a chromosomal integration of a Firefly luciferase reporter construct regulated by eight copies of the NF-κB response element. The effects of these compounds can be quantified by measuring the value of the NF-κB IC50.

[3] = Metabolism in rodent (mouse, rat) liver microsomes; assay type: in vitro ADME, mice, rats; conditions: 60-min incubation, NADPH and UGT
[4] = Oral pharmacokinetics in monkeys; assay type: in vivo, monkey; conditions: oral suspension, 10 to 100 mg/kg
Method: Measurements were performed on TQD and QToF mass spectrometers (Waters).
Following oral administration of a suspension formulation at doses of 10 to 100 mg/kg, maximal concentrations were observed within 1 to 2 h in mice, and within 1 to 24 h in rats and monkeys.

CYP1A2 = CYP1A2 (Homo sapiens, UniProt P05177); assay: in vitro; assay type: in vitro ADME; conditions: microsomes
Sequence of CYP1A2 (P05177 whole entry): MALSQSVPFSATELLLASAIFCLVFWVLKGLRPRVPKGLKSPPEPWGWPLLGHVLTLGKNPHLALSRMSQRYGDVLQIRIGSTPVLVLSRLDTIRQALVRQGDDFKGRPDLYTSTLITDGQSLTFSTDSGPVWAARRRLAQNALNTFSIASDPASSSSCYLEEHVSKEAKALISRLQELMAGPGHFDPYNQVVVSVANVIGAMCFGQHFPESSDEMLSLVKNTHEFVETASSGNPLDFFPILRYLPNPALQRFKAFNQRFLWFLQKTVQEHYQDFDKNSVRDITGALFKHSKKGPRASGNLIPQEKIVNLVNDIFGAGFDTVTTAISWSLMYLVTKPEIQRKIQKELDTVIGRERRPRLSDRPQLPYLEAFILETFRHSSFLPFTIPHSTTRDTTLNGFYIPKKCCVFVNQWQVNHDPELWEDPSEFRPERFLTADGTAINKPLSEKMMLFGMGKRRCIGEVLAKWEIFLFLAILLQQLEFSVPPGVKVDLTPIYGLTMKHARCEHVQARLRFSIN
Description: (§1) In addition, there was little or no evidence of metabolism-dependent inhibition of any of the enzymes tested.

[5] = test system: NADPH levels in HCT-116 cells; assay: WST-1 absorbance as marker of NADPH in HCT-116; assay type: cell-based; conditions: HCT-116, 24 h
Description: WST-1 absorbance is commonly used to assess cell viability by measuring glycolytic production of NAD(P)H by viable cells. Therefore, in situations where NADPH production increases in the absence of any effect on cell viability, WST-1 absorbance also increases (Berridge et al. Biochemica 4:14-19, 1996, which is incorporated herein by reference).

[6] = test system: total glutathione in AML-12 hepatocyte cell line; assay: Total glutathione (GSH-Glo) in AML-12; assay type: cell-based, mouse; conditions: AML-12, 24 h, 15.6 nM
Description: Glutathione and NADPH are critical factors required for the maintenance of cellular redox capacity. […] Data shown are representative of two independent experiments.

[7] = test system: bleomycin-induced pulmonary fibrosis; assay: Bleomycin-induced pulmonary fibrosis in mice; assay type: in vivo, mouse; conditions: 10, 30, or 100 mg/kg oral gavage daily for 39 days
CYP3A4/5 = assay: CYP450 inhibition in pooled human liver microsomes, CYP3A4/5; assay type: in vitro ADME; conditions: read-out: Ki, direct inhibition of CYP3A4/5
Description: as §1

[8] = test system: rat GSTA2 ARE (Nrf2) in AREc32 reporter cell line; assay: GSTA2-ARE luciferase reporter in AREc32; conditions: 15.6 nM, 18 h
[9] = test system: NQO1 and HMOX1 protein in BV2 cells; assay: Western blot of Nrf2 target proteins in BV2; assay type: cell-based, mouse; conditions: BV2, 24 h
Method: SH-SY5Y cells were plated in 6-well plates at a density of 4×10^5 cells per well. BV-2 cells were plated in 6-well plates at a density of 2.5×10^4 cells per well. […] Following treatment, cells were washed twice with cold PBS and harvested in lysis buffer. Cells were sonicated and debris was cleared by centrifugation (10 min @ 18,000 rcf, Beckman Coulter, microfuge 18 centrifuge). Total protein in supernatant was quantified using Bio-Rad protein reagent with BSA as a standard. Equal amounts of total cellular protein were separated on SDS-PAGE, and proteins were transferred to nitrocellulose membrane. Membranes were blocked for 1 hour in TBST (1×TBS with 0.1% Tween-20) containing 5% milk, washed 3 times with TBST, and incubated with primary antibodies overnight at 4° C. NQO1 antibody was from Abcam (#AB2346); HMOX1 (HO-1) antibody was from Santa Cruz (#sc-10789); actin antibody was from Millipore (#MAB 1501). After washing with TBST, secondary antibodies were added in TBST+5% milk for 1 h at room temperature. AffiniPure goat anti-rabbit or anti-mouse IgG secondary antibodies were from Jackson ImmunoResearch (catalog #111-035-144 and #115-035-146, respectively). Membranes were washed in TBST, developed using ECL, and exposed to X-ray film. […] HMOX1 protein was not detected in untreated or RTA 408-treated SH-SY5Y cells. […] The same amount of 63170 (54.6 nM) was required.

CC1(C)CC[C@]2(NC(=O)C(C)(F)F)CC[C@]3(C)[C@H](C(=O)C=C4[C@@]5(C)C=C(C#N)C(=O)C(C)(C)[C@@H]5CC[C@]43C)[C@@H]2C1 [RTA 408, N-((4aS,6aR,6bS,8aR,12aS,14aR,14bS)-11-cyano-2,2,6a,6b,9,9,12a-heptamethyl-10,14-dioxo-1,2,3,4,4a,5,6,6a,6b,7,8,8a,9,10,12a,14,14a,14b-octadecahydropicen-4a-yl)-2,2-difluoropropanamide]
NQO1, Gst, Gsr enzyme activity in monkey liver and lung (and rodent liver) (cynomolgus monkeys; 10, 30, and 100 mg/kg, 14 days): dose-dependent increases in NQO1, Gst, and Gsr enzyme activity | Clinical chemistry (cynomolgus monkeys; 14 days): Clinical chemistry data suggested no obvious toxicity | ALP (cynomolgus monkeys; 10 mg/kg): 382 U/L | ALT (cynomolgus monkeys; 10 mg/kg): 46 U/L | AST (cynomolgus monkeys; 10 mg/kg): 38 U/L | Albumin (cynomolgus monkeys; 10 mg/kg): 4 g/dL | BUN (cynomolgus monkeys; 10 mg/kg): 27 mg/dL | Chol (cynomolgus monkeys; 10 mg/kg): 144 mg/dL | Cr (cynomolgus monkeys; 10 mg/kg): 0.68 mg/dL | Glucose (cynomolgus monkeys; 10 mg/kg): 39 mg/dL | TG (cynomolgus monkeys; 10 mg/kg): 82 mg/dL | Tot Bil (cynomolgus monkeys; 10 mg/kg): 0.23 mg/dL | Tot Prot (cynomolgus monkeys; 10 mg/kg): 7.2 g/dL | ALP (cynomolgus monkeys; 30 mg/kg): 416 U/L | ALT (cynomolgus monkeys; 30 mg/kg): 47 U/L | AST (cynomolgus monkeys; 30 mg/kg): 43 U/L | Albumin (cynomolgus monkeys; 30 mg/kg): 4 g/dL | BUN (cynomolgus monkeys; 30 mg/kg): 20 mg/dL | Chol (cynomolgus monkeys; 30 mg/kg): 122 mg/dL | Cr (cynomolgus monkeys; 30 mg/kg): 0.58 mg/dL | Glucose (cynomolgus monkeys; 30 mg/kg): 53 mg/dL | TG (cynomolgus monkeys; 30 mg/kg): 64 mg/dL | Tot Bil (cynomolgus monkeys; 30 mg/kg): 0.2 mg/dL | Tot Prot (cynomolgus monkeys; 30 mg/kg): 7.2 g/dL | ALP (cynomolgus monkeys; 100 mg/kg): 390 U/L | ALT (cynomolgus monkeys; 100 mg/kg): 43 U/L | AST (cynomolgus monkeys; 100 mg/kg): 37 U/L | Albumin (cynomolgus monkeys; 100 mg/kg): 3.2 g/dL | BUN (cynomolgus monkeys; 100 mg/kg): 24 mg/dL | Chol (cynomolgus monkeys; 100 mg/kg): 93 mg/dL | Cr (cynomolgus monkeys; 100 mg/kg): 0.55 mg/dL | Glucose (cynomolgus monkeys; 100 mg/kg): 32 mg/dL | TG (cynomolgus monkeys; 100 mg/kg): 61 mg/dL | Tot Bil (cynomolgus monkeys; 100 mg/kg): 0.18 mg/dL | Tot Prot (cynomolgus monkeys; 100 mg/kg): 6 g/dL | Concentration at which increases in NQO1 enzymatic activity were evident [1]: 7.8 nM | IC50 ([2]; not viability normalized, read-out: NIH3T3/NF-κB IC50): 1.2 µM | IC50 ([2]; viability normalized, read-out: NIH3T3/NF-κB IC50, normalized for viability): 1.4 µM | Parent molecule remaining [3]: > 65% | Time of maximal concentrations [4]: 1 to 24 h | inhibition at 3 µM (CYP1A2): < 50% | WST-1 absorbance (marker of NADPH) [5]: increased WST-1 absorbance in a dose-dependent manner | Increase in total glutathione [6]: > 2 fold | Inflammation and interstitial fibrosis (lung histology) [7]: no statistically significant effects were observed | Ki (CYP3A4/5): ~0.5 µM | Induction of luciferase activity, GSTA2-ARE reporter [8]: ~2 fold | NQO1 and HMOX1 protein levels [9]: increased NQO1 and HMOX1 protein levels at concentrations up to 125 nM
